Measured values: US6114310A, “Efflux pump inhibitors” (priority 1998, dated 2000)

System: Pseudomonas aeruginosa PAM1001
Assay: microbe, parasite or virus in culture
Type: cell-based
In short: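 Checkerboard broth microdilution (NCCLS) with the efflux pump inhibitor and levofloxacin, each diluted along one axis of the plate, in Mueller Hinton Broth. Inoculum 5×10^5 CFU/ml from early-log culture; incubation 20 h at 35° C. Growth read at 650 nm and visually.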

[1] = Table 1, EPI Conc. μg/ml (number not given; column between 10 and 40 μg/ml)
[2] = Table 2, EPI Conc. μg/ml (number not given; column between 10 and 40 μg/ml)
[3] = Table 3, EPI Conc. μg/ml (number not given; column between 10 and 40 μg/ml)
[4] = Table 4, EPI Conc. μg/ml (number not given; column between 10 and 40 μg/ml)

Substance | Levofloxacin MIC Against P. aeruginosa PAM1001 in Presence of Efflux Pump Inhibitor (EPI), Minimum Inhibitory Concentration (Table 1, EPI Conc. 0 μg/ml) [µg/mL] | Levofloxacin MIC Against P. aeruginosa PAM1001 in Presence of Efflux Pump Inhibitor (EPI), Minimum Inhibitory Concentration (Table 1, EPI Conc. 0.625 μg/ml) [µg/mL] | Levofloxacin MIC Against P. aeruginosa PAM1001 in Presence of Efflux Pump Inhibitor (EPI), Minimum Inhibitory Concentration (Table 1, EPI Conc. 5 μg/ml) [µg/mL] | Levofloxacin MIC Against P. aeruginosa PAM1001 in Presence of Efflux Pump Inhibitor (EPI), Minimum Inhibitory Concentration (Table 1, EPI Conc. 10 μg/ml) [µg/mL] | Levofloxacin MIC Against P. aeruginosa PAM1001 in Presence of Efflux Pump Inhibitor (EPI), Minimum Inhibitory Concentration (Table 1, EPI Conc. 40 μg/ml) [µg/mL] | Levofloxacin MIC Against P. aeruginosa PAM1001 in Presence of Efflux Pump Inhibitor (EPI), Minimum Inhibitory Concentration [1] [µg/mL] | Levofloxacin MIC Against P. aeruginosa PAM1001 in Presence of Efflux Pump Inhibitor (EPI), Minimum Inhibitory Concentration (Table 2, EPI Conc. 0 μg/ml) [µg/mL] | Levofloxacin MIC Against P. aeruginosa PAM1001 in Presence of Efflux Pump Inhibitor (EPI), Minimum Inhibitory Concentration (Table 2, EPI Conc. 0.625 μg/ml) [µg/mL] | Levofloxacin MIC Against P. aeruginosa PAM1001 in Presence of Efflux Pump Inhibitor (EPI), Minimum Inhibitory Concentration (Table 2, EPI Conc. 5 μg/ml) [µg/mL] | Levofloxacin MIC Against P. aeruginosa PAM1001 in Presence of Efflux Pump Inhibitor (EPI), Minimum Inhibitory Concentration (Table 2, EPI Conc. 10 μg/ml) [µg/mL] | Levofloxacin MIC Against P. aeruginosa PAM1001 in Presence of Efflux Pump Inhibitor (EPI), Minimum Inhibitory Concentration (Table 2, EPI Conc. 40 μg/ml) [µg/mL] | Levofloxacin MIC Against P. aeruginosa PAM1001 in Presence of Efflux Pump Inhibitor (EPI), Minimum Inhibitory Concentration [2] [µg/mL] | Levofloxacin MIC Against P. aeruginosa PAM1001 in Presence of Efflux Pump Inhibitor (EPI), Minimum Inhibitory Concentration (Table 3, EPI Conc. 0 μg/ml) [µg/mL] | Levofloxacin MIC Against P. aeruginosa PAM1001 in Presence of Efflux Pump Inhibitor (EPI), Minimum Inhibitory Concentration (Table 3, EPI Conc. 0.625 μg/ml) [µg/mL] | Levofloxacin MIC Against P. aeruginosa PAM1001 in Presence of Efflux Pump Inhibitor (EPI), Minimum Inhibitory Concentration (Table 3, EPI Conc. 5 μg/ml) [µg/mL] | Levofloxacin MIC Against P. aeruginosa PAM1001 in Presence of Efflux Pump Inhibitor (EPI), Minimum Inhibitory Concentration (Table 3, EPI Conc. 10 μg/ml) [µg/mL] | Levofloxacin MIC Against P. aeruginosa PAM1001 in Presence of Efflux Pump Inhibitor (EPI), Minimum Inhibitory Concentration (Table 3, EPI Conc. 40 μg/ml) [µg/mL] | Levofloxacin MIC Against P. aeruginosa PAM1001 in Presence of Efflux Pump Inhibitor (EPI), Minimum Inhibitory Concentration [3] [µg/mL] | Levofloxacin MIC Against P. aeruginosa PAM1001 in Presence of Efflux Pump Inhibitor (EPI), Minimum Inhibitory Concentration (Table 4, EPI Conc. 0 μg/ml) [µg/mL] | Levofloxacin MIC Against P. aeruginosa PAM1001 in Presence of Efflux Pump Inhibitor (EPI), Minimum Inhibitory Concentration (Table 4, EPI Conc. 0.625 μg/ml) [µg/mL] | other results
D-Lysyl-β-N-(Cyclopropylmethyl)alanine Quinoline-2-amide Trifluoroacetate [Example 29] | 4 | 4 | 1 | 0.125 | 0.125 | 0.125 | 4 | 4 | 0.125 | 0.06 | 0.06 | 0.06 | 4 | 4 | 2 | 0.25 | 0.008 | 0.03 | 4 | 4 | Levofloxacin MIC Against P. aeruginosa PAM1001 in Presence of Efflux Pump Inhibitor (EPI), Minimum Inhibitory Concentration (Table 3, EPI Conc. […]): 4 µg/mL; Levofloxacin MIC Against P. aeruginosa PAM1001 in Presence of Efflux Pump Inhibitor (EPI), Minimum Inhibitory Concentration (Table 4, EPI Conc. 5 μg/ml): 0.06 µg/mL; Levofloxacin MIC Against P. aeruginosa PAM1001 in Presence of Efflux Pump Inhibitor (EPI), Minimum Inhibitory Concentration (Table 4, EPI Conc. 10 μg/ml): 0.015 µg/mL; Levofloxacin MIC Against P. aeruginosa PAM1001 in Presence of Efflux Pump Inhibitor (EPI), Minimum Inhibitory Concentration (Table 4, EPI Conc. 40 μg/ml): 0.015 µg/mL; Levofloxacin MIC Against P. aeruginosa PAM1001 in Presence of Efflux Pump Inhibitor (EPI), Minimum Inhibitory Concentration [4]: 0.015 µg/mL
D-Ornithyl-β-N-(Cyclopropylmethyl)alanine Quinoline-2-amide Trifluoroacetate [Example 28] | 4 | 4 | 2 | 1 | 0.125 | 0.06 | 4 | 4 | 1 | 0.50 | 0.125 | 0.25 | 4 | 4 | 0.015 | 0.008 | 0.015 | 0.015 | 4 | 4 | Levofloxacin MIC Against P. aeruginosa PAM1001 in Presence of Efflux Pump Inhibitor (EPI), Minimum Inhibitory Concentration (Table 1, EPI Conc. […]): 4 µg/mL; Levofloxacin MIC Against P. aeruginosa PAM1001 in Presence of Efflux Pump Inhibitor (EPI), Minimum Inhibitory Concentration (Table 2, EPI Conc. […]): 4 µg/mL; Levofloxacin MIC Against P. aeruginosa PAM1001 in Presence of Efflux Pump Inhibitor (EPI), Minimum Inhibitory Concentration (Table 4, EPI Conc. 5 μg/ml): 2 µg/mL; Levofloxacin MIC Against P. aeruginosa PAM1001 in Presence of Efflux Pump Inhibitor (EPI), Minimum Inhibitory Concentration (Table 4, EPI Conc. 10 μg/ml): 0.25 µg/mL; Levofloxacin MIC Against P. aeruginosa PAM1001 in Presence of Efflux Pump Inhibitor (EPI), Minimum Inhibitory Concentration (Table 4, EPI Conc. 40 μg/ml): 0.125 µg/mL; Levofloxacin MIC Against P. aeruginosa PAM1001 in Presence of Efflux Pump Inhibitor (EPI), Minimum Inhibitory Concentration [4]: 0.125 µg/mL
